From US20050215551A1, “1-[2H-1-benzopyran-2-one-8-yl]- piperazine derivatives for the treatment of movement disorders” (SOLVAY PHARMACEUTICALS B.V., priority 2004, published 2005)
“Also recorded” adds a separate entry of the source. Where two headings read alike, the source gives them in different places.

What was measured:
DBA/2 mice [1] = experiment: Anticonvulsant activity: audiogenic seizures in DBA/2 mice; type: in vivo; settings: for effect on tonic phase of audiogenic seizures / effect on clonic phase of audiogenic seizures / effect on tonic and clonic phase of audiogenic seizures: 30 min after i.p. administration; for ED50: Mus musculus, ip, 0.5 h, 30 minutes after drug administration; for behavioural changes: all dosages tested
From the text: DBA/2 mice weighing 6-12 g (22-26 days old; either sex, Harlan Italy Correzzana, Milano, Italy) are housed in groups of 8-10 under a 12-h light/dark cycle (lights on at 7:00 a.m.) with food and water available ad libitum. The experimental protocol is approved by University of Catanzaro Ethical Committee. All procedures are in compliance with the Nationals Institutes of Health Guide for Care and Use of Laboratory Animals (Publication No. 85-23, revised 1985) and European Communities Council Directive of 24 Nov. 1986 (86/609 EEC).
The experiments are performed according to the method previously described by De Sarro et al. (1984), Eur. J. Pharmacol., 104, 55-60. Compounds of the invention or vehicle (controls) are given intraperitoneally (i.p.) and orally (p.o.) as freshly sonicated solutions in methylcellulose 1%. For the […]; pretreatment time at 30 and 60 min., For oral treatment, all animals are pretreated either at 30 or 60 min using the compounds of the invention at doses of 0.1, 0.3, 3, 6 and 10 mg/kg p.o. At least 10 mice per dose are used. After pretreatment time, each mouse is placed under a hemispheric perspex dome (58 cm in diameter) and 1 min is allowed for habituation and assessment of locomotor activity. Animals are challenged with a 12-16 kHz sinusoidal tone at 109 dB. Seizure response is assessed by two independent observers. The sound evoked behaviour is coded using the following scale: 0=no response, 1=wild running, 2=clonus, 3=tonic flexor and/or extensor; 4=respiratory arrest, on the basis of the concordant opinion of the observers. […] The maximum response is recorded for each animal. Rectal temperature is recorded immediately prior to auditory testing using an Elektrolaboratoriet thermometer type T.E.3. Behavioral changes are observed during the period between drug administration and auditory testing. In these experiments separate vehicle-treated and drug-treated groups are used at each pretreatment time (15 min-60 min). Percentage of mice showing wild running, clonic or tonic phase and the duration of anticonvulsant activity are compared to control group and statistically analyzed.
Statistical comparison between groups of control and drug-treated DBA/2 mice is made using Fisher's exact probability test (incidence of the seizure phases). The percentage incidence of each phase of the audiogenic seizure is determined for each drug. These values are plotted against the corresponding doses by a computer construction of the dose-effect curves for calculation of ED50 (with 95% confidence limits). The ED50 values for each compound are calculated using a computer program of the method of Litchfield and Wilcoxon (1949). At least 32 animals are used to calculate each ED50 value.
For systemic injections and oral administrations, all compounds are given intraperitoneally (0.1 ml/10 g of body weight of the mouse) as a freshly prepared solution in methylcellulose 1%. In order to avoid the light sensitivity, weighing and handling are carried out under sodium vapor lamps and the substances are protected from light during the experiments.

DBA/2 mice [2] = experiment: Interaction studies in DBA/2 mice: Compound 1 + vehicle, sumatriptan or SB 258741 (audiogenic seizures); type: in vivo; settings: pre-treatment 3 mg/kg, i.p.; for effect of pre-treatment on the anti-epileptic activity (dose-response curve) of Compound 1: 5 min before Compound 1
Experimental: The experiments are performed according to the method previously described by De Sarro et al. (1984), Eur. J. Pharmacol., 104, 55-60. Compounds of the invention or vehicle (controls) are given intraperitoneally (i.p.) and orally (p.o.) as freshly sonicated solutions in methylcellulose 1%. For the i.p. treatment compounds of the invention are given at doses of 0.1, 0.3, 3, 10, 15, 20 and 30 mg/kg; pretreatment time at 30 and 60 min., For oral treatment, all animals are pretreated either at 30 or 60 min using the compounds of the invention at doses of 0.1, 0.3, 3, 6 and 10 mg/kg p.o. At least 10 mice per dose are used. After pretreatment time, each mouse is placed under a hemispheric perspex dome (58 cm in diameter) and 1 min is allowed for habituation and assessment of locomotor activity. Animals are challenged with a 12-16 kHz sinusoidal tone at 109 dB. Seizure response is assessed by two independent observers. The sound evoked behaviour is coded using the following scale: 0=no response, 1=wild running, 2=clonus, 3=tonic flexor and/or extensor; 4=respiratory arrest, on the basis of the concordant opinion of the observers. […] The maximum response is recorded for each animal. Rectal temperature is recorded immediately prior to auditory testing using an Elektrolaboratoriet thermometer type T.E.3. Behavioral changes are observed during the period between drug administration and auditory testing. In these experiments separate vehicle-treated and drug-treated groups are used at each pretreatment time (15 min-60 min). Percentage of mice showing wild running, clonic or tonic phase and the duration of anticonvulsant activity are compared to control group and statistically analyzed.

5-HT1A = molecular target: T1, 5-HT1A (Rattus norvegicus, UniProt P19327); experiment: In vivo 5-HT1A agonism: lower lip retraction (LLR); settings: 60 minutes after oral administration
T1 construct: from tissue; host or cells: whole animal (in vivo behavioural test)
T1 sequence (P19327 whole entry): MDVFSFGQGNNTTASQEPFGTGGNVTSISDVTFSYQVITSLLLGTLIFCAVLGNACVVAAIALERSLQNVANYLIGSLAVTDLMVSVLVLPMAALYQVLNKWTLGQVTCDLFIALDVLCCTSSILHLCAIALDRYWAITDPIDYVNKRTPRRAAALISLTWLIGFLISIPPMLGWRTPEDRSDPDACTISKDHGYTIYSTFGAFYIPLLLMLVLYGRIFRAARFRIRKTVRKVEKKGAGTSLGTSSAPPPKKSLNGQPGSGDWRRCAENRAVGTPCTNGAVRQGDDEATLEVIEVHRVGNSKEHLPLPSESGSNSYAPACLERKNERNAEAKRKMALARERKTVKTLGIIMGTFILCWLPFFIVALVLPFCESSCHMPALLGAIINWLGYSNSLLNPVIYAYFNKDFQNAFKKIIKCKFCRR
Experimental: Lower lip retraction was measured according to the method described by Berendsen et al., (Pharmacol. Biochem. Behav. 33, (1989), 821-827).

[3] = i.p. administration, read-out: ED50 Clonic seizures
[4] = i.p. administration, read-out: ED50 Wild running
[5] = i.p. administration, read-out: ED50 Tonic extension

Structure (SMILES) | effect on tonic phase of audiogenic seizures (DBA/2 mice [1]; 0.3, 1, 3, 10 mg/kg) | effect on clonic phase of audiogenic seizures (DBA/2 mice [1]; 0.3, 1, 3, 10, 15 and 20 mg/kg) | effect on tonic phase of audiogenic seizures (DBA/2 mice [1]; 15 and 20 mg/kg) | ED50 (DBA/2 mice [1]; read-out: ED50 Tonic extension, i.p. administration) | ED50 (DBA/2 mice [1]; [3]) | ED50 (DBA/2 mice [1]; [4]) | behavioural changes (DBA/2 mice [1]; i.p. administration) | effect of pre-treatment on the anti-epileptic activity (dose-response curve) of Compound 1 (DBA/2 mice [2]) | effect on tonic phase of audiogenic seizures (DBA/2 mice [1]; 15 mg/kg) | effect on clonic phase of audiogenic seizures (DBA/2 mice [1]; 1, 3, 10 and 15 mg/kg) | ED50 (DBA/2 mice [1]; [5]) | ED50 (5-HT1A) | effect on tonic and clonic phase of audiogenic seizures (DBA/2 mice [1]; 0.3, 1, 3, 5 and 7,5 mg/kg) | effect on tonic and clonic phase of audiogenic seizures (DBA/2 mice [1]; 10 and 15 mg/kg) | potency in shifting the dose-response curve of Compound 1, compared (DBA/2 mice [2]; 5 min before)
CCCN(CCC)C1CCc2cccc(O)c2C1 (centres unmarked) [Compound 8-OH-DPAT, 8-hydroxy-2-(di-n-propylamino)tetralin] | did not significantly antagonized | did not significantly antagonized | able to significantly (P<0.01 and P<0.05) antagonize | 15 mg/kg | > 20 mg/kg | > 20 mg/kg | At none of the dosages tested | – | – | – | – | – | – | – | –
Cc1cccc(S(=O)(=O)N2CCC[C@@H]2CCN2CCC(C)CC2)c1 [SB258741] | – | – | – | – | > 15 mg/kg | > 15 mg/kg | At none of the dosages tested | shift the dose-response curve of COMPOUND 1 to the right; also recorded: partly antagonized | able to significantly (P<0.01) antagonize | did not significantly antagonize | ~12 mg/kg | – | – | – | –
O=C(NCCN1CCN(c2cccc3c2OC[C@H](CO)O3)CC1)c1ccc(F)cc1 [flesinoxan] | – | – | – | – | 9.37 mg/kg | > 15 mg/kg | At none of the dosages tested | – | – | – | 7.74 mg/kg | 0.22 mg/kg | did not significantly antagonized | able to significantly (P<0.0.1) antagonize | –
CNS(=O)(=O)Cc1ccc2[nH]cc(CCN(C)C)c2c1 [sumatriptan, reference compound] | – | – | – | – | – | – | – | shift the dose-response curve of COMPOUND 1 to the right; also recorded: partly antagonized | – | – | – | – | – | – | more potent than SB 258741
